Assay results taken from patent publication US12649746B2, “Ketorolaco derivative, pharmaceutical composition and preparation method therefor and use thereof” (NANJING HERON PHARMACEUTICAL SCIENCE AND TECHNOLOGY CO., …, priority 2020, dated 2026).

Test: Stability study of levorotatory enantiomer of compounds in solvent (MCT)
Assay type: physicochemical
Details: MCT solution; for Isomer (%): dextrorotatory form
Protocol: 2. Test method: the samples were prepared according to Table 2, wherein each sample was dispensed into 10 vials according to the lofting volume, and the samples were lofted according to Table 3.
4. The related substance was determined according to high performance liquid chromatography (General Chapter 0512, China Pharmacopoeia, 2015 Edition).
(1) Chromatographic conditions: the chromatography column was Agilent ZORBAX SB-C8, 4.6 mm×250 mm, 5 μm, and 0.1% phosphoric acid solution-acetonitrile (50:50) was used as a mobile phase; the detection wavelength was […]; the flow rate was 1.0 mL/min; the column temperature was 40° C., and linear gradient elution was performed according to the following table;
(§1) (2) Determination method: an appropriate amount of the product was weighed precisely, a diluent (absolute ethanol) was added and shaken to dissolve, and quantitatively diluted to give a solution containing 0.4 mg per 1 mL, the solution was […] by vortex for 30 s, and filtered with PTFE filter membrane (0.22 μm, JINTENG), and the filtrate was collected as a test sample solution. 10 μL of the solution was weighed precisely and injected into a liquid chromatograph, and a chromatogram was recorded; if an impurity peak existed in the chromatogram of the test sample solution, calculation was performed according to a peak area normalization method to give the target product.
5. Isomer determination was performed according to high performance liquid chromatography (General Chapter 0512, China Pharmacopoeia, 2015 Edition).
(1) Chromatographic conditions: cellulose-tris(3,5-dimethylphenylcarbamate)silica gel was used as filler (Chiralcel OD-H, 250×4.6 mm, 5 μm); n-hexane-isopropanol (90:10) was used as a mobile phase, and isocratic elution was performed for 25 min at a flow rate of 1.0 mL/min; the column temperature was 35° C.; the detection wavelength was 310 nm.
as §1, with “(n-hexane-isopropanol (90:10))” for “(absolute ethanol)”, “about 1.0” for “0.4”, “20” for “10”, “isomer” for “impurity”

## CC(C)OC(=O)OC(C)OC(=O)[C@H]1CCn2c(C(=O)c3ccccc3)ccc21 (stereo partly drawn) [N2(S)]
5° C., Day 5
  Ketorolac (%): 0.2%
  Purity (%): 99.08%
  Isomer (%): 5.63%
5° C., Day 15
  Ketorolac (%): 0.14%
  Purity (%): 99.18%
  Isomer (%): 5.87%
5° C., Day 30
  Ketorolac (%): 0.25%
  Purity (%): 99.01%
  Isomer (%): 5.99%
5° C., day 0
  Ketorolac (%): 0.16%
  Purity (%): 99.14%
  Isomer (%): 5.65%
25° C., Day 5
  Ketorolac (%): 0.21%
  Purity (%): 99.08%
  Isomer (%): 5.66%
25° C., Day 15
  Ketorolac (%): 0.17%
  Purity (%): 99.13%
  Isomer (%): 5.86%
25° C., Day 30
  Ketorolac (%): 0.28%
  Purity (%): 98.95%
  Isomer (%): 6.01%
25° C., day 0
  Ketorolac (%): 0.16%
  Purity (%): 99.14%
  Isomer (%): 5.65%
60° C., Day 5
  Ketorolac (%): 0.3%
  Purity (%): 98.92%
  Isomer (%): 5.7%
60° C., Day 15
  Ketorolac (%): 0.49%
  Purity (%): 98.67%
  Isomer (%): 5.89%
60° C., Day 30
  Ketorolac (%): 0.65%
  Purity (%): 98.38%
  Isomer (%): 6.13%
60° C., day 0
  Ketorolac (%): 0.16%
  Purity (%): 99.14%
  Isomer (%): 5.65%

## CCOC(=O)OC(C)OC(=O)[C@H]1CCn2c(C(=O)c3ccccc3)ccc21 (stereo partly drawn) [N12(S)]
5° C., Day 5
  Ketorolac (%): 0.02%
  Purity (%): 99.62%
  Isomer (%): 3.05%
5° C., Day 15
  Ketorolac (%): 0.02%
  Purity (%): 99.64%
  Isomer (%): 3.07%
5° C., Day 30
  Ketorolac (%): 0.03%
  Purity (%): 99.55%
  Isomer (%): 3.06%
5° C., day 0
  Ketorolac (%): 0.02%
  Purity (%): 99.65%
  Isomer (%): 3.01%
25° C., Day 5
  Ketorolac (%): 0.03%
  Purity (%): 99.59%
  Isomer (%): 3.04%
25° C., Day 15
  Ketorolac (%): 0.04%
  Purity (%): 99.61%
  Isomer (%): 3.09%
25° C., Day 30
  Ketorolac (%): 0.07%
  Purity (%): 99.49%
  Isomer (%): 3.11%
25° C., day 0
  Ketorolac (%): 0.02%
  Purity (%): 99.65%
  Isomer (%): 3.01%
60° C., Day 5
  Ketorolac (%): 0.09%
  Purity (%): 99.53%
  Isomer (%): 3.12%
60° C., Day 15
  Ketorolac (%): 0.23%
  Purity (%): 99.35%
  Isomer (%): 3.1%
60° C., Day 30
  Ketorolac (%): 0.41%
  Purity (%): 99.05%
  Isomer (%): 3.48%
60° C., day 0
  Ketorolac (%): 0.02%
  Purity (%): 99.65%
  Isomer (%): 3.01%

## CCOC(=O)OC(CC)OC(=O)[C@H]1CCn2c(C(=O)c3ccccc3)ccc21 (stereo partly drawn) [N15(S)]
5° C., Day 5
  Ketorolac (%): 0.02%
  Purity (%): 99.46%
  Isomer (%): 4.58%
5° C., Day 15
  Ketorolac (%): 0.02%
  Purity (%): 99.45%
  Isomer (%): 4.73%
5° C., Day 30
  Ketorolac (%): 0.03%
  Purity (%): 99.38%
  Isomer (%): 4.62%
5° C., day 0
  Ketorolac (%): 0.03%
  Purity (%): 99.48%
  Isomer (%): 4.59%
25° C., Day 5
  Ketorolac (%): 0.03%
  Purity (%): 99.42%
  Isomer (%): 4.58%
25° C., Day 15
  Ketorolac (%): 0.03%
  Purity (%): 99.41%
  Isomer (%): 4.72%
25° C., Day 30
  Ketorolac (%): 0.05%
  Purity (%): 99.33%
  Isomer (%): 4.64%
25° C., day 0
  Ketorolac (%): 0.03%
  Purity (%): 99.48%
  Isomer (%): 4.59%
60° C., Day 5
  Ketorolac (%): 0.06%
  Purity (%): 99.35%
  Isomer (%): 4.59%
60° C., Day 15
  Ketorolac (%): 0.17%
  Purity (%): 99.21%
  Isomer (%): 4.75%
60° C., Day 30
  Ketorolac (%): 0.35%
  Purity (%): 98.92%
  Isomer (%): 4.63%
60° C., day 0
  Ketorolac (%): 0.03%
  Purity (%): 99.48%
  Isomer (%): 4.59%
